{"source": "paper PMC8524858", "about": "“Dual inhibition of αvβ6 and αvβ1 reduces fibrogenesis in lung tissue explants from patients with IPF” (Respiratory Research, 2021)", "key": {"human integrin αvβ6": {"molecular_target": "T1, human integrin αvβ6 (Homo sapiens, UniProt P06756+P18564)", "T1 construct": "purchased ACROBiosystems or R&D Systems IT6-H52E1 or 3817-AV", "T1 sequence (P06756 31-992 limits assumed)": "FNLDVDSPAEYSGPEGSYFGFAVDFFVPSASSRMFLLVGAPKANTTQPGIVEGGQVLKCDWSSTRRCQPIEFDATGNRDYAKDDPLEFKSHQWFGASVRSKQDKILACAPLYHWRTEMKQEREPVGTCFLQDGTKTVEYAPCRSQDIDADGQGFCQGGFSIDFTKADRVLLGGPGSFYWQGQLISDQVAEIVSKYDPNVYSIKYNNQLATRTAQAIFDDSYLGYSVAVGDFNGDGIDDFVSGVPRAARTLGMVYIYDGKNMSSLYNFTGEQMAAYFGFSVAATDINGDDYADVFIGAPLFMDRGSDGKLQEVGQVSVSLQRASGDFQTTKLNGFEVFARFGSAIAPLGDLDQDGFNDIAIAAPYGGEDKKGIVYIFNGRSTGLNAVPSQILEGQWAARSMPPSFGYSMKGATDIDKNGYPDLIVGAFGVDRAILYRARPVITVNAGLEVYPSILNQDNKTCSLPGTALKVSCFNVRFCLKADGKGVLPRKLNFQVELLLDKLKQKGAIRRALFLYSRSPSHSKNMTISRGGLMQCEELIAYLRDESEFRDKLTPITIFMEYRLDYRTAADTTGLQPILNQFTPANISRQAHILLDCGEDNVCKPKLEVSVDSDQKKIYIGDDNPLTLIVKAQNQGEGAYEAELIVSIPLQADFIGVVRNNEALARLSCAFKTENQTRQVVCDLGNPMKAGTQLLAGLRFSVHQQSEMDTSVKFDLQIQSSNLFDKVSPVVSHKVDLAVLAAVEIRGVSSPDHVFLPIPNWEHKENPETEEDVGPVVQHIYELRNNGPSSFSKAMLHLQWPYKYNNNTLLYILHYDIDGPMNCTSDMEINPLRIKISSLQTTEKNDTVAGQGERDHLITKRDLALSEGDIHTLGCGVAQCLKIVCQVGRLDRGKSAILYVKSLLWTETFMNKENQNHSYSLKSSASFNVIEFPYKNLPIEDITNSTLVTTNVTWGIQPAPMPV", "T1 sequence (P18564 22-707 limits assumed)": "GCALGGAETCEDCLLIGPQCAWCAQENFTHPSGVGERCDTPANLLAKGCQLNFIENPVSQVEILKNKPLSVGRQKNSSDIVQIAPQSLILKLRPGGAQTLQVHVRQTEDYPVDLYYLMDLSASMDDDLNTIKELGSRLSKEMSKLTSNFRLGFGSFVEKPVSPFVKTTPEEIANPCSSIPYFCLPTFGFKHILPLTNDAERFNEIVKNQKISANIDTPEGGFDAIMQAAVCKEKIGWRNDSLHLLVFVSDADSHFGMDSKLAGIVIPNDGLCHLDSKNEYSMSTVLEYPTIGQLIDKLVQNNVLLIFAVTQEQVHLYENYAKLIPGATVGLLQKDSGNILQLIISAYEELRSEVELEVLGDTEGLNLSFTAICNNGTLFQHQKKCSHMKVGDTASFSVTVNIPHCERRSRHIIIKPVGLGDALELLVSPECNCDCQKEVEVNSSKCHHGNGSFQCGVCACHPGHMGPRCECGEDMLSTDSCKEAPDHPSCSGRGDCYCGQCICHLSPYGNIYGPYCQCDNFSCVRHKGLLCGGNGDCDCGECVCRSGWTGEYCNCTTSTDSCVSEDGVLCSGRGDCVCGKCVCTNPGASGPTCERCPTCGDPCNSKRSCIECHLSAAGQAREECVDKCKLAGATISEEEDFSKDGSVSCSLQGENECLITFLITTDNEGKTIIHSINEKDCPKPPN", "assay": "Integrin ligand-binding assay, αvβ6 (LAP ligand)", "procedure": "(§1) Integrin ligand-binding assays were performed similar to that previously described.\n(§2) Microplates were coated with recombinant human integrins dissolved in PBS (2 µg/ml, overnight at room temperature). Following removal of the coating solution, plates were washed with PBS. Plates were blocked with 200 µL/well of blocking buffer (2% bovine serum albumin [BSA] in PBS) at 37 °C for 1 h. […] Plates were incubated for 2 h at 25 °C, washed, and incubated for 1 h with biotin-labeled anti-fibronectin or anti-LAP antibodies (for αvβ1 or αvβ6/αvβ8, respectively)."}, "human integrin αvβ5": {"molecular_target": "T2, human integrin αvβ5 (Homo sapiens, UniProt P06756+P18084)", "T2 construct": "purchased R&D Systems 2528-AV", "T2 sequence (P06756 31-992 limits assumed)": "as the sequence (P06756 31-992 limits assumed) above", "T2 sequence (P18084 24-719 limits assumed)": "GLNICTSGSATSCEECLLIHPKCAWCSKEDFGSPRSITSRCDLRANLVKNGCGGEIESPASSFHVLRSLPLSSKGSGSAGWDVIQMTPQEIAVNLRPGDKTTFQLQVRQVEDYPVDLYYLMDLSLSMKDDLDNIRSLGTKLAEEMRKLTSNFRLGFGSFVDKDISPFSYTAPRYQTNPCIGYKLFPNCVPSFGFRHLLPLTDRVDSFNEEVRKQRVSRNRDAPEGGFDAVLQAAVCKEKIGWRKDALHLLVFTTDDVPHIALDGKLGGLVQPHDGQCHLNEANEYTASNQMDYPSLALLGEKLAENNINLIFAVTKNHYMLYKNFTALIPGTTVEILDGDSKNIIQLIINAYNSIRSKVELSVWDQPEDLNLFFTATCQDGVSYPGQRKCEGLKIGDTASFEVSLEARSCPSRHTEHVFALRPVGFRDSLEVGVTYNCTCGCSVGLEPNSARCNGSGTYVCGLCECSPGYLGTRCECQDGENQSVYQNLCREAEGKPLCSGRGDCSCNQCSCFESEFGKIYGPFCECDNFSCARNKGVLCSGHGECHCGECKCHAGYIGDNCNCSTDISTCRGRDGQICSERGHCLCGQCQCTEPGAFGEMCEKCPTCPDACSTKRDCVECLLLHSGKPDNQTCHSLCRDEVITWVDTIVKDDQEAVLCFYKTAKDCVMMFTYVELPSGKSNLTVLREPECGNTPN", "assay": "Integrin ligand-binding assay, αvβ5 (vitronectin ligand)", "procedure": "as §1, §2"}, "human integrin αvβ1": {"molecular_target": "T3, human integrin αvβ1 (Homo sapiens, UniProt P05556+P06756)", "T3 construct": "purchased ACROBiosystems or R&D Systems IT1-H52E1 or 6579-AVB", "T3 sequence (P06756 31-992 limits assumed)": "as the sequence (P06756 31-992 limits assumed) above", "T3 sequence (P05556 21-728 limits assumed)": "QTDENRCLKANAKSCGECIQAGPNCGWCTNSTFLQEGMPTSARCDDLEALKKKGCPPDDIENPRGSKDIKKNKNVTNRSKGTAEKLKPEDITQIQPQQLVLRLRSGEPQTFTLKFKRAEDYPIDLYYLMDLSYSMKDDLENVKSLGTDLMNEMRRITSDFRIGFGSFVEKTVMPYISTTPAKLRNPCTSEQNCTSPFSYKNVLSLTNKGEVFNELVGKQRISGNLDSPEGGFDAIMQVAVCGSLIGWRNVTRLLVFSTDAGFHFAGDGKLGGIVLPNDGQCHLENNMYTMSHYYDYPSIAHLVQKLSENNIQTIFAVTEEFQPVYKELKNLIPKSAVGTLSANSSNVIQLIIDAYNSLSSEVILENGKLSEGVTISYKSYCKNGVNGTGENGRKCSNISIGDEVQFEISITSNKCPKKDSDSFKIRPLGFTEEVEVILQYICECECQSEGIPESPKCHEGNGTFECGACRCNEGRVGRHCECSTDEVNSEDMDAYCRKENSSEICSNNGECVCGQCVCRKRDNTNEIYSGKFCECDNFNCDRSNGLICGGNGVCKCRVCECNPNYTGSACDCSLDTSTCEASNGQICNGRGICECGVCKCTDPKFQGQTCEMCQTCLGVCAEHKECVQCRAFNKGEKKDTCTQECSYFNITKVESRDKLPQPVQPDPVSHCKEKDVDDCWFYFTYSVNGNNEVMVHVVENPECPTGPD", "assay": "Integrin ligand-binding assay, αvβ1 (fibronectin ligand)", "procedure": "as §1, §2"}, "[1]": {"system": "normal human bronchial epithelial cell adhesion to LAP (αvβ6 integrin-mediated)", "assay": "Primary cell LAP adhesion assay (cell impedance), NHBE", "assay_type": "cell-based", "conditions": "normal human bronchial epithelial cells, read-out: IC50 for inhibition of adhesion to LAP", "procedure": "(§3) Adhesion of primary human lung cells to LAP was quantified using the xCELLigence RTCA MP instrument (ACEA Biosciences; San Diego, CA, USA) via cell impedance measurements similar to that previously described.\n(§4) Adhesion assays were performed using the xCELLigence RTCA MP instrument (ACEA Biosciences; San Diego, CA, USA) on 96-well PET plates (ACEA Biosciences; 300600910) via a cell impedance measurement similar to one previously described (E6). Plates were coated with LAP (Sino Biological; 10804-H08H1) overnight at 4 °C and blocked with BSA for 2 h at 37 °C. NHLF (40,000 cells/well), dHLF (40,000 cells/well), or NHBE (20,000 cells per well) in FBS-free media were combined with small-molecule integrin inhibitors or antibodies in the plates and incubated at 37 °C with 5% CO2. […] Anti-αv antibody, 17E6, and anti-β1 antibody, P5D2, were tested at a single concentration (10 μg/ml). Cell impedance (cell index) was measured at baseline and every 3 min for up to 24 h using xCELLigence RTCA 2.1.0 Software (ACEA Biosciences). […] Geometric mean IC50 was calculated for each compound following repeat analyses of multiple donor cells."}, "[2]": {"system": "normal human lung fibroblast adhesion to LAP", "assay": "Primary cell LAP adhesion assay (cell impedance), normal HLF", "assay_type": "cell-based", "conditions": "HLFs isolated from normal lung tissue, read-out: IC50 for blocking adhesion to LAP", "procedure": "as §3, §4"}, "human integrin αvβ8": {"molecular_target": "T4, human integrin αvβ8 (Homo sapiens, UniProt P06756+P26012)", "T4 construct": "purchased R&D Systems 4135-AV", "T4 sequence (P06756 31-992 limits assumed)": "as the sequence (P06756 31-992 limits assumed) above", "T4 sequence (P26012 43-684 limits assumed)": "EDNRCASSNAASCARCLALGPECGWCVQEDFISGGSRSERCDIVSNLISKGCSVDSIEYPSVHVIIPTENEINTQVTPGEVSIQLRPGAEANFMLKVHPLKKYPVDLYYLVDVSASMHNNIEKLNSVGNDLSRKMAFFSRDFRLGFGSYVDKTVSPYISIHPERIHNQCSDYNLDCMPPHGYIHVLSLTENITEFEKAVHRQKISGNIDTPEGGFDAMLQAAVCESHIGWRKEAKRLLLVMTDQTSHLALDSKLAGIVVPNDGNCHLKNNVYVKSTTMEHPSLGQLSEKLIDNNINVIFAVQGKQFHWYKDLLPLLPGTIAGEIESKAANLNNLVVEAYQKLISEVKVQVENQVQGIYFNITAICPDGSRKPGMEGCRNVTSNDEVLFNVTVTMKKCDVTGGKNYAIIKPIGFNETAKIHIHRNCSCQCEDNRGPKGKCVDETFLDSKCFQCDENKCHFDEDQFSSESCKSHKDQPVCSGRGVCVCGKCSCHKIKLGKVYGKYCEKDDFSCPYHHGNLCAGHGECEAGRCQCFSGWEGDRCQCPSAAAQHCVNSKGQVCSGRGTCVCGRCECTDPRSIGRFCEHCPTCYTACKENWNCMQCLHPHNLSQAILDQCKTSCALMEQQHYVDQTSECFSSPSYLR", "assay": "Integrin ligand-binding assay, αvβ8 (LAP ligand)", "procedure": "as §1, §2"}, "[3]": {"system": "PCLSs prepared from explanted lung tissue from patients with IPF", "assay": "Fibrotic gene expression in PCLSs from IPF lung explants", "assay_type": "cell-based, human", "text": "(§5) PCLSs were generated from explanted lung tissue from patients with IPF and cultured as previously described. Mouse PCLSs were generated and cultured as previously described. Messenger ribonucleic acid (mRNA) levels in lysates prepared from snap-frozen tissue slices were quantified via NanoString PlexSet reagents and nCounter SPRINT Profiler (NanoString; Seattle, WA, USA; Additional file 1: Table S2) or TaqMan primers/probes on a Bio-Rad CFX96 thermocycler (Bio-Rad; Hercules, CA, USA; Additional file 1: Table S3).\nHuman PCLSs were generated from lung tissue explants from patients with IPF undergoing transplant surgery and cultured based on previously reported methods (E7-E12). Slices of tissue (400 µm) were cut using a Compresstome VF-300-0Z (Precisionary Instruments; Natick, MA, USA).\n(§6) Slices from each individual core (human) or mouse were distributed among the treatment groups to control for variability in the fibrotic injury within the tissue. […] After 3 or 7 days in culture, slices were washed and snap-frozen. Viability of sentinel slices on Days 0/1 and 3/7 was determined using WST-1 Cell Proliferation Reagent (Sigma 5015944001; St Louis, MO, USA).\n(§7) For all figures (except Fig. 2B, Fig. S2, and Fig. S4), snap-frozen tissue slices were incubated in one-third RLT buffer (Qiagen #79216; Venlo, Netherlands) supplemented with 2 mg/ml proteinase K (Sigma-Aldrich #3115887001; St Louis, MO, USA) at 55 °C for 2 h 45 min, with periodic vortexing to generate ribonucleic acid (RNA)-compatible tissue lysate. This lysate was incubated overnight with probes from a custom fibrosis gene panel and NanoString PlexSet reagents (Table S2). The following day, samples were analyzed on a NanoString nCounter SPRINT Profiler (NanoString; Seattle, WA, USA). Messenger RNA (mRNA) counts were normalized to housekeeping genes (GUSB, HPRT1, RPLP0, and/or POLR1B) and total mRNA counts, relative to vehicle-treated control from the same experiment, are reported."}, "[4]": {"system": "PCLSs prepared from bleomycin-challenged mouse lungs", "assay": "Col1a1 expression in PCLSs from bleomycin-challenged mouse lungs", "assay_type": "cell-based", "text": "as §5\nMouse PCLSs were generated and cultured based on previously reported methods (E13). Briefly, mice were challenged with bleomycin (Hospira; Lake Forest, IL, USA or Teva; Toronto, ON, Canada), either acutely with a single dose (3 U/kg or 4 U/kg) or chronically with multiple doses (3 U/kg bleomycin followed by four 1 U/kg challenges at 2-week intervals). Fourteen days after the final bleomycin challenge, lungs were harvested and 200 μm-thick slices were cut using a Compresstome VF-300-0Z (Precisionary Instruments).\nas §6, §7\nFor Figs. 2B, S2, and S4, RNA purification and qPCR were performed by Transcriptic, Inc. (Menlo Park, CA, USA) using a proprietary automated protocol. Briefly, RNA was purified on a KingFisher Flex system (Thermo Fisher) and qPCR was performed on a Bio-Rad CFX96 (Bio-Rad; Hercules, CA, USA) with TaqMan primers/probes (Thermo Fisher) listed in Table S3. Ct values were normalized to housekeeping genes (Rn18sRn45s and Hprt) and reported as ddCT and fold change versus the vehicle-treated samples."}, "[5]": {"conditions": "7 days, PLN-74809 200 nM, relative to vehicle (Fig. 6B)"}}, "note": "pIC50: −log10 of the molar value.", "data": [{"smiles": "COCCN(CCCCc1ccc2c(n1)NCCC2)CC[C@H](Nc1ncnc2ccccc12)C(=O)O", "note": "[PLN-74809]", "values": [{"measurement": "pIC50", "setting": "human integrin αvβ6", "result": 8.24}, {"measurement": "Fold selectivity (vs αvβ6)", "setting": "human integrin αvβ6; ligand binding", "result": 1, "unit": "×"}, {"measurement": "pIC50", "setting": "human integrin αvβ5", "result": 5.16}, {"measurement": "Fold selectivity (vs αvβ6)", "setting": "human integrin αvβ5; ligand binding", "result": 1226, "unit": "×"}, {"measurement": "pIC50", "setting": "human integrin αvβ1", "result": 8.47}, {"measurement": "Fold selectivity (vs αvβ6)", "setting": "human integrin αvβ1; ligand binding", "result": 0.6, "unit": "×"}, {"measurement": "pIC50", "setting": "[1]", "result": 7.41}, {"measurement": "pIC50", "setting": "[2]", "result": 7.80}, {"measurement": "pIC50", "setting": "human integrin αvβ8", "result": 5.60}, {"measurement": "Fold selectivity (vs αvβ6)", "setting": "human integrin αvβ8; ligand binding", "result": 445, "unit": "×"}, {"measurement": "reduction of COL1A1 mRNA expression", "setting": "[3]; 7-day incubation, Compound A 471 nM, 3G9 0.5 µg/ml, PLN-74809 1.82 µM, ALK5i R-268712 1 µM, vs vehicle (Fig. 1A)", "result": 54, "unit": "%"}, {"measurement": "reduction of COL1A1 mRNA expression", "setting": "[3]; 7 days, PLN-74809 200 nM, nintedanib 75 nM, pirfenidone 50 µM, vs DMSO (Fig. 6A)", "result": 42, "unit": "%"}, {"measurement": "reduction of COL3A1 expression", "setting": "[3]; [5]", "result": 30, "unit": "%"}, {"measurement": "reduction of SERPINE1 expression", "setting": "[3]; [5]", "result": 39, "unit": "%"}, {"measurement": "reduction of TIMP1 expression", "setting": "[3]; [5]", "result": 26, "unit": "%"}, {"measurement": "reduction of collagen gene expression", "setting": "[3]; at concentrations as low as 2 nM, explanted tissue from a patient with IPF", "result": "~ 50%"}, {"measurement": "lowest concentration sufficient to significantly reduce COL1A1 expression", "setting": "[3]; dose titration, PCLSs from a single patient with IPF (Fig. S1C)", "result": 2, "unit": "nM"}, {"measurement": "lowest concentration with significant reduction of Col1a1 mRNA expression", "setting": "[4]; 3 days of treatment (Fig. S2)", "result": 16, "unit": "nM"}, {"measurement": "reduction of Col1a1 mRNA expression", "setting": "[4]; 3 days of treatment, dose titration (Fig. S2)", "result": "up to 71%"}, {"measurement": "pIC50", "setting": "[4]; Mus musculus, 72 h, 3 days of treatment, extrapolation from dose-response curve of combined experiments (Fig. S4), read-out: minimum concentration required to reduce Col1a1 mRNA levels by 50%", "result": 6.76}, {"measurement": "inhibition of collagen mRNA expression", "setting": "[4]; acutely injured mouse lungs, 3 days, PLN-74809 200 nM, GSK3008348 1000 nM, CWHM-12 1000 nM (Fig. 2B)", "result": "virtually the same degree as less selective multi-αv integrin inhibitors"}, {"measurement": "effect on Col1a1 gene expression", "setting": "[4]; chronic bleomycin-challenged mouse lungs, 7 days of treatment, nintedanib and pirfenidone at approximate clinical Cmax (Fig. 6C)", "result": "significantly reduced"}, {"measurement": "effect on Col1a1 mRNA expression", "setting": "[4]; chronic bleomycin-challenged mouse lungs, 7 days, Compound A 471 nM, 3G9 0.5 µg/ml, PLN-74809 1.82 µM (Fig. 2A)", "result": "effective at significantly reducing"}]}]}
